Like-named read-outs stand apart in the source and are kept apart here. Blank lines part the entries; values can stand above or below the compound they belong to.
What was measured:
[1] = target: phospholipase A2 obtained from human leucocytes; assay: In vitro test for determining the inhibition of phospholipase A2 obtained from human leucocytes; type: biochemical; conditions: pH 7, 37°, one hour, 14C-oleic acid labelled E. coli phospholipids
Text: In vitro test for determining the inhibition of phospholipase A2 obtained from human leucocytes Human neutrophilic polymorphonuclear leucocytes are isolated from "buffy coats" by multistage fractional sedimentation and deep-frozen. Phospholipase A2 is extracted from the cell suspension by homogenisation with the addition of ice-cold 0.36N H2 SO4 in 2M NaCl and the supernatant obtained after centrifugation at 10,000 g is dialysed against sodium acetate buffer pH 4.5. […] The reaction is stopped by the addition of Dole reagent (isopropanol/heptane/1N H2 SO4 40:10:1, v/v) and the ^14 C-oleic acid released selectively by phospholipase A2 is extracted. […] The ^14 C-oleic acid in the eluate is determined radiometrically. In order to ascertain the inhibitory action of test substances on phospholipase A2, these substances are added to the incubation mixture in the form of solutions in water, dimethyl sulphoxide (final concentration in the mixture up to 5% by volume) or ethanol (final concentration in the mixture up to 2.5% by volume). The strength of action of the test substances is expressed by the IC50, that is to say the concentration that brings about a 50% inhibition of the control activity The IC50 is ascertained on a graph by entering the percentage inhibition on the ordinate against the logarithm of the concentration (μM) on the abscissa.

[2] = system: LTD4-induced contractions of the isolated ileum; assay: Inhibitory action on LTD4-induced contractions of the guinea-pig ileum; type: cell-based, guinea-pigs; conditions: Cavia porcellus; synthetic LTD4, guinea-pig ileum segments in Tyrode's solution, 38° C.
Method: (§1) For example, they have an anti-allergic action which is based on a pronounced LTD4 (leucotriene-D4) and PAF (PAF-acetoether) antagonism.
Inhibitory action on LTD4 -induced contractions of the guinea-pig ileum
Contractions, the severity of which is recorded, are induced by synthetic LTD4 (leucotriene-D4, potassium salt) in ileum segments that have been taken from guinea-pigs having a body weight of from 300 to 400 g, fastened in an organ bath in Tyrode's solution (38° C., gassing with 95% O2 and 5% CO2) and charged with […]. The degree of inhibition of these contractions that is attributable to the LTD4 -antagonistic action of the test substance is measured. The concentration of test substance that reduces LTD4 -induced contractions to 50% of the starting value is ascertained, this concentration being termed IC50.

[3] = target: phospholipase C obtained from human thrombocytes; assay: In vitro test for determining the inhibition of phospholipase C obtained from human thrombocytes; type: biochemical
Method: In vitro test for determining the inhibition of phospholipase C obtained from human thrombocytes
Human thrombocytes are obtained from "buffy coats" by fractional centrifugation and then deep-frozen. Phospholipase C is released by ultrasound treatment of the cell suspension and, after ultracentrifugation (150,000 g, 1 hour) is in soluble form in the supernatant.
In order to determine the enzyme activity, enzyme (20-100 μg protein) is incubated for 5 minutes at 37° in 0.025M tris/malate buffer pH 6 with the addition of 0.2 mM CaCl2 and 0.02 mM radioactively labelled substrate, phosphatidyl- [^14 C]-inositol. The reaction is stopped by extraction by shaking with CHCl3 /CH3 OH 2:1 (v/v). Substrate that has not been consumed is extracted into the organic phase while the reaction product, ^14 C-inositol phosphate, remains in the aqueous phase and can be measured by radiometry of an aliquot.
In order to ascertain the inhibitory action of test substances on phospholipase C, these substances are added to the incubation mixture in the form of solutions in water or dimethyl sulphoxide (final concentration in the mixture up to 5% by volume). The strength of action of the test substances is expressed by the IC50, that is to say the concentration that brings about a 50% inhibition of the control activity. The IC50 is ascertained on a graph by entering the percentage inhibition on the ordinate against the logarithm of the concentration (μM) on the abscissa.

[4] = system: LTD4-induced bronchospasms; assay: Bronchoconstriction test in guinea-pigs (in vivo, aerosol), LTD4-induced bronchospasm; conditions: aerosol treatment, compliance in third minute after LTD4 aerosol
Method: as §1
Bronchoconstriction test in guinea-pigs (in vivo, aerosol)
Male guinea-pigs weighing from 400 to 700 g are anaesthetised intraperitoneally with 1.4 g/kg of urethane, and a polyethylene tube is introduced into the jugular vein. A second polyethylene tube is introduced into the trachea. The pressure in the oesophagus is recorded by means of a tube which is introduced into the oesophagus and which is connected to a Statham pressure transducer. […] The flow is measured by means of this arrangement. […]
Aqueous solutions are each freshly prepared and introduced by means of an on-stream drug vial into the chamber of the spray device. […] The reduction in the compliance in the third minute after the administration of LTD4 is read by comparing the average value of three animals with the average value of three control animals and the percentage inhibition of the compliance is calculated in accordance with the following formula: [formula] If different concentrations of active ingredient are investigated, then the percentage inhibition for each concentration is recorded by entering the log concentration on the abscissa against the percentage inhibition on the ordinate. […]

SMILES: CCCc1c(OCCCOc2cc(NC(=O)c3nnn[nH]3)c(C)cc2Br)ccc(C(C)=O)c1O [N-{3-[3-(4-acetyl-3-hydroxy-2-n-propylphenoxy)-propoxy]-4-bromo-6-methylphenyl}-1H-tetrazole-5-carboxamide]
IC50 ([1]; read-out: IC50): 10 µM
IC50 [2]: 0.008 µM

SMILES: CCCc1c(OCCCOc2cccc(NC(=O)c3nnn[nH]3)c2C#N)ccc(C(C)=O)c1O [N-{3-[3-(4-acetyl-3-hydroxy-2-n-propylphenoxy)-propoxy]-2-cyanophenyl}-1H-tetrazole-5-carboxamide]
IC50 ([1]; read-out: IC50): 20 µM
IC50 ([3]; pH 6, 37°, 5 minutes, phosphatidyl-[14C]-inositol, read-out: IC50): 14 µM

SMILES: CCCc1c(OCC(O)COc2cccc(NC(=O)C(=O)O)c2C#N)ccc(C(C)=O)c1O (stereo not drawn) [N-{3-[3-(4-acetyl-3-hydroxy-2-n-propyl-phenoxy)-2-hydroxypropoxy]-2-cyanophenyl}-oxamic acid, reference compound]
IC50 [1]: inactive at 100
IC50 ([3]; pH 6, 37°, 5 minutes, phosphatidyl-[14C]-inositol): inactive at 100

SMILES: CCCc1c(OCC(O)COc2cccc(NC(=O)C(=O)O)c2)ccc(C(C)=O)c1O (stereo not drawn) [N-{3-[3-(4-acetyl-3-hydroxy-2-n-propyl-phenoxy)-2-hydroxypropoxy]-phenyl}-oxamic acid, reference compound]
IC50 [1]: inactive at 100

SMILES: CCCc1c(OCCCOc2cccc(NC(=O)C(=O)O)c2C#N)ccc(C(C)=O)c1O [N-{3-[3-(4-acetyl-3-hydroxy-2-n-propylphenoxy)-propoxy]-2-cyanophenyl}-oxamic acid]
IC50 ([1]; read-out: IC50): 30 µM

Now from value to compound:

IC50 ([1]; read-out: IC50): 15 µM
IC50 [4]: 0.033 % of the aerosol solution
SMILES: CCCc1c(OCCCOc2cc(NC(=O)C(=O)O)c(C)cc2Br)ccc(C(C)=O)c1O [N-{3-[3-(4-acetyl-3-hydroxy-2-n-propylphenoxy)-propoxy]-4-bromo-6-methylphenyl}-oxamic acid]

IC50 ([1]; read-out: IC50): 23 µM
SMILES: CCCc1c(OCCCOc2cccc(NC(=O)C(=O)O)c2)ccc(C(C)=O)c1O [N-{3-[3-(4-acetyl-3-hydroxy-2-n-propylphenoxy)-propoxy]-phenyl}-oxamic acid]

IC50 [2]: 0.015 µM
IC50 [4]: 0.024 % of the aerosol solution
SMILES: CCCc1c(OCCCOc2ccc(C)c(NC(=O)C(=O)O)c2)ccc(C(C)=O)c1O [N-{3-[3-(4-acetyl-3-hydroxy-2-n-propylphenoxy)-propoxy]-6-methylphenyl}-oxamic acid]

IC50 ([1]; read-out: IC50): 1600 µM
IC50 ([3]; mepacrine under the test conditions described, read-out: IC50): 20 µM
SMILES: CCN(CC)CCCC(C)Nc1c2ccc(Cl)cc2nc2ccc(OC)cc12 (stereo not drawn) [mepacrine, reference compound]

Reference: patent US4863942A, “Novel resorcinol ethers and anti-inflammatory and anti-allergic use thereof” (Ciba-Geigy Corporation, priority 1984, dated 1989)
